The values that follow come from publication PMC7217877, “N-AS-triggered SPMs are direct regulators of microglia in a model of Alzheimer’s disease” (Nature Communications, 2020).

This experiment has as its target T1, COX2 (Homo sapiens, UniProt P35354).
T1 sequence (P35354 18-604): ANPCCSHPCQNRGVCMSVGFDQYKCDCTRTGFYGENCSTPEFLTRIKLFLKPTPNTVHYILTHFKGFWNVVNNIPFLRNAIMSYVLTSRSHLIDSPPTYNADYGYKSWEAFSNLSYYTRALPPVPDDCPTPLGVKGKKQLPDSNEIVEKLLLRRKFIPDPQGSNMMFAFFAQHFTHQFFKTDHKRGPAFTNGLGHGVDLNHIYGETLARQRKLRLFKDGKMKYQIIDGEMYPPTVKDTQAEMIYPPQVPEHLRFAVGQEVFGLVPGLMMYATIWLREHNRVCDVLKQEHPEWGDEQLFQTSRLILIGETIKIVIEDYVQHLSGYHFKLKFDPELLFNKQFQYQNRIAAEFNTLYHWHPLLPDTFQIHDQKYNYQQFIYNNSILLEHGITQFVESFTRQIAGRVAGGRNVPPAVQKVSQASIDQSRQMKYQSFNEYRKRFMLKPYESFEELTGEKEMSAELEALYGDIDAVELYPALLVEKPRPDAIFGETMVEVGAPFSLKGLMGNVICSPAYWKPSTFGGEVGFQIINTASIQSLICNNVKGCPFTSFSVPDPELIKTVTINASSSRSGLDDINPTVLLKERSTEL
Put plainly: S565 acetylation of recombinant COX2 (ac-S565 western blot, LC-MS/MS of acetylated site). The settings on record: 2 mM; vs naive and aspirin-treated COX2. The experiment is classed as biochemical. More on the design: purchased LSBio LS-G21094. As to the method: To identify the acetylation site of COX2, N-AS (Sigma-Aldrich, 01912)-treated COX2 enzymes (LSBio, LS-G21094) were immediately precipitated with trichroloacetic acid (Merck) and dried. The dried extract was resuspended in 10 μl of 5 M Urea solution and incubated with 1 μg sequencing-grade modified porcine trypsin (Promega) in 0.1 M ammonium bicarbonate buffer at 37 °C for 16 h. The sample was then treated with 1 M DTT (GE Healthcare) at RT for 1 h, followed by alkylation with 1 M iodoacetamide (Sigma-Aldrich) for 1 h. For sequencing, the protein samples were loaded onto a ZORBAX 300SB-C18 column (3.5 μm, 1.0 mm i.d. × 150 mm, Agilent). The column was placed in-line with an UltiMate 3000 system (Dionex, USA) and a splitter system was used to achieve a flow rate of 100 μl min^−1. Analytes were eluted with a mobile phase consisting of water: formic acid (100:0.2 v/v) (phase A) and acetonitrile: formic acid (100:0.2 v/v) (phase B) in gradient elution mode for 77 min. […]
Samples were lysed in RIPA buffer (Cell signaling Technologies), then subjected to SDS-PAGE and transferred to a nitrocellulose membrane. […] We performed densitometric quantification using the ImageJ software (National Institutes of Health). […]
(A western blot detects proteins with antibodies after separation by electrophoresis.)

Turning to `CCCCCCCCCCCCC/C=C/[C@@H](O)[C@H](CO)NC(C)=O` [N-AS, N-((2S,3R,E)-1,3-Dihydroxyoctadec-4-en-2-yl)acetamide], the “ac-S565 signal in western blot of recombinant COX2” value is reported as “strong ac-S565-positive signals”.
